Experimental data taken from ChEMBL document CHEMBL1201862, “PubChem BioAssay data set” (2004).
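Test compounds were applied to cells in 96-well plates for 48 hours at 5 doses. The concentration for 50% growth inhibition is given as GI50.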 The source made the active and inactive calls. Cut-off read from the data, not from the text of the source: active = GI50 up to about 1.1 µM and inactive = higher.

Legend:
Assay in all cases: NCI-60 cell line screen, 48 h
MOLT-4 = system: MOLT-4
MDA-MB-435 = system: MDA-MB-435
T47D = system: T47D
HL-60 = system: HL-60
NCI-H23 = system: NCI-H23
IGROV-1 = system: IGROV-1
A498 = system: A498
COLO 205 = system: COLO 205
OVCAR-3 = system: OVCAR-3
786-0 = system: 786-0
SF-295 = system: SF-295
HCT-15 = system: HCT-15
EKVX = system: EKVX
NCI/ADR-RES = system: NCI/ADR-RES
UO-31 = system: UO-31
CAKI-1 = system: CAKI-1
ACHN = system: ACHN
HOP-62 = system: HOP-62
SF-268 = system: SF-268
HCC 2998 = system: HCC 2998

Compound	GI50 (MOLT-4)	GI50 (MDA-MB-435)	GI50 (T47D)	GI50 (HL-60)	GI50 (NCI-H23)	GI50 (IGROV-1)	GI50 (A498)	GI50 (COLO 205)	GI50 (OVCAR-3)	GI50 (786-0)	GI50 (SF-295)	GI50 (HCT-15) [µM]	GI50 (EKVX)	GI50 (NCI/ADR-RES)	GI50 (UO-31)	GI50 (CAKI-1)	GI50 (ACHN)	GI50 (HOP-62)	GI50 (SF-268)	GI50 (HCC 2998)
CCOC(=O)c1sc(N)nc1N1CCCC1	> 100 µM (inactive)	> 100 µM (inactive)	> 100 µM (inactive)	> 100 µM (inactive)	> 100 µM (inactive)	> 100 µM (inactive)	> 100 µM (inactive)	> 100 µM (inactive)	> 100 µM (inactive)	> 100 µM (inactive)	> 100 µM (inactive)	> 100	> 100 µM (inactive)	> 100 µM (inactive)	> 100 µM (inactive)	> 100 µM (inactive)	> 100 µM (inactive)	> 100 µM (inactive)	–	–
O=c1oc2ccccc2cc1-c1csc(Nc2cc(Cl)cc(Cl)c2)n1	> 43 µM (inactive)	4.9 µM (inactive)	15.5 µM (inactive)	> 90.8 µM (inactive)	> 38.1 µM (inactive)	14 µM (inactive)	4.94 µM (inactive)	18 µM (inactive)	11.5 µM (inactive)	2.27 µM (inactive)	6.35 µM (inactive)	> 100	> 55.6 µM (inactive)	6.59 µM (inactive)	2.77 µM (inactive)	–	1.9 µM (inactive)	3.85 µM (inactive)	12.8 µM (inactive)	> 100 µM (inactive)
CC[C@](O)(C(=O)O)c1cc2n(c(=O)c1CO)Cc1cc3ccccc3nc1-2	0.0257 µM (active)	0.0532 µM (active)	0.0324 µM (active)	0.025 µM (active)	0.025 µM (active)	0.0652 µM (active)	0.0398 µM (active)	0.234 µM (active)	–	0.00366 µM (active)	0.025 µM (active)	0.0964	0.0371 µM (active)	0.0254 µM (active)	0.0372 µM (active)	0.025 µM (active)	0.0025 µM (active)	0.0025 µM (active)	–	0.324 µM (active)
c1ccc2c(c1)-c1nc3ccccc3cc1C2N1CCOCC1 (configuration not stated)	57.9 µM (inactive)	> 100 µM (inactive)	45.8 µM (inactive)	34.5 µM (inactive)	> 100 µM (inactive)	79.4 µM (inactive)	> 100 µM (inactive)	> 100 µM (inactive)	> 100 µM (inactive)	> 100 µM (inactive)	> 100 µM (inactive)	> 100	63.1 µM (inactive)	81.3 µM (inactive)	1.37 µM (inactive)	> 100 µM (inactive)	> 100 µM (inactive)	> 100 µM (inactive)	61.2 µM (inactive)	–
CC(C)(C)c1ccc(OC(=O)Nc2ccc(O)c(C(=O)O)c2)cc1	> 100 µM (inactive)	> 100 µM (inactive)	> 100 µM (inactive)	30.7 µM (inactive)	> 100 µM (inactive)	> 100 µM (inactive)	> 100 µM (inactive)	> 100 µM (inactive)	> 100 µM (inactive)	> 100 µM (inactive)	> 100 µM (inactive)	> 100	> 100 µM (inactive)	> 100 µM (inactive)	–	> 100 µM (inactive)	> 100 µM (inactive)	> 100 µM (inactive)	> 100 µM (inactive)	–
Fc1ccc(Oc2nc3ccc(C(F)(F)F)cc3nc2-c2ccccc2)cc1	46 µM (inactive)	76.2 µM (inactive)	99.3 µM (inactive)	87.3 µM (inactive)	77.3 µM (inactive)	> 100 µM (inactive)	–	> 100 µM (inactive)	> 100 µM (inactive)	61.7 µM (inactive)	37.7 µM (inactive)	> 100	> 100 µM (inactive)	> 100 µM (inactive)	44.3 µM (inactive)	27.9 µM (inactive)	44.8 µM (inactive)	24.4 µM (inactive)	> 100 µM (inactive)	14.5 µM (inactive)
CS(=O)(=O)CC(=O)c1ccccc1	> 100 µM (inactive)	> 100 µM (inactive)	> 100 µM (inactive)	> 100 µM (inactive)	> 100 µM (inactive)	> 100 µM (inactive)	> 100 µM (inactive)	> 100 µM (inactive)	> 100 µM (inactive)	> 100 µM (inactive)	> 100 µM (inactive)	> 100	> 100 µM (inactive)	> 100 µM (inactive)	> 100 µM (inactive)	–	> 100 µM (inactive)	> 100 µM (inactive)	> 100 µM (inactive)	> 100 µM (inactive)
COC(=O)C1C2CC3C1C3C2C(=O)OC (configuration not stated)	> 100 µM (inactive)	> 100 µM (inactive)	> 100 µM (inactive)	–	> 100 µM (inactive)	> 100 µM (inactive)	> 100 µM (inactive)	> 100 µM (inactive)	> 100 µM (inactive)	> 100 µM (inactive)	> 100 µM (inactive)	> 100	> 100 µM (inactive)	> 100 µM (inactive)	> 100 µM (inactive)	> 100 µM (inactive)	> 100 µM (inactive)	> 100 µM (inactive)	> 100 µM (inactive)	> 100 µM (inactive)
COC(=O)OC[C@H]1O[C@@H](n2cc(C)c(=O)[nH]c2=O)CC1OC(=O)OC (some centres not stated)	> 100 µM (inactive)	> 100 µM (inactive)	> 100 µM (inactive)	> 100 µM (inactive)	> 100 µM (inactive)	> 100 µM (inactive)	> 100 µM (inactive)	> 100 µM (inactive)	> 100 µM (inactive)	> 100 µM (inactive)	> 100 µM (inactive)	> 100	> 100 µM (inactive)	> 100 µM (inactive)	> 100 µM (inactive)	–	> 100 µM (inactive)	> 100 µM (inactive)	> 100 µM (inactive)	> 100 µM (inactive)
Cc1ccc(Cc2nn(C)c(=O)n2N)cc1	–	> 100 µM (inactive)	> 100 µM (inactive)	–	> 100 µM (inactive)	> 100 µM (inactive)	> 100 µM (inactive)	> 100 µM (inactive)	> 100 µM (inactive)	> 100 µM (inactive)	> 100 µM (inactive)	> 100	> 100 µM (inactive)	> 100 µM (inactive)	> 100 µM (inactive)	> 100 µM (inactive)	> 100 µM (inactive)	–	–	> 100 µM (inactive)
CSC1=N/C(=C\c2ccc(C)cc2)C(=O)N1	81.5 µM (inactive)	> 100 µM (inactive)	25.2 µM (inactive)	54.8 µM (inactive)	51.8 µM (inactive)	> 100 µM (inactive)	–	> 100 µM (inactive)	> 100 µM (inactive)	45.8 µM (inactive)	65 µM (inactive)	> 100	52.8 µM (inactive)	> 100 µM (inactive)	47.8 µM (inactive)	> 100 µM (inactive)	> 100 µM (inactive)	39.5 µM (inactive)	59.6 µM (inactive)	66.2 µM (inactive)
COC(=O)c1sc2ncc3c(c2c1N)CCCCCC3	> 100 µM (inactive)	> 100 µM (inactive)	> 100 µM (inactive)	–	> 100 µM (inactive)	> 100 µM (inactive)	> 100 µM (inactive)	> 100 µM (inactive)	> 100 µM (inactive)	> 100 µM (inactive)	> 100 µM (inactive)	> 100	> 100 µM (inactive)	> 100 µM (inactive)	> 100 µM (inactive)	> 100 µM (inactive)	> 100 µM (inactive)	53.6 µM (inactive)	> 100 µM (inactive)	> 100 µM (inactive)
O=C(O)/C=C\C(=O)Nc1ccc2c(c1)C(=O)c1cc(F)ccc1-2	> 100 µM (inactive)	> 100 µM (inactive)	> 100 µM (inactive)	> 100 µM (inactive)	> 100 µM (inactive)	> 100 µM (inactive)	> 100 µM (inactive)	> 100 µM (inactive)	> 100 µM (inactive)	> 100 µM (inactive)	> 100 µM (inactive)	> 100	> 100 µM (inactive)	> 100 µM (inactive)	> 100 µM (inactive)	> 100 µM (inactive)	> 100 µM (inactive)	> 100 µM (inactive)	> 100 µM (inactive)	–
Oc1c2cccc1Cc1cccc3c1OCCOCCOCCOCCOc1c(cccc1Cc1cccc(c1O)C3)C2	> 100 µM (inactive)	> 100 µM (inactive)	> 100 µM (inactive)	–	> 100 µM (inactive)	> 100 µM (inactive)	> 100 µM (inactive)	> 100 µM (inactive)	0.897 µM (active)	> 100 µM (inactive)	9.29 µM (inactive)	> 100	> 100 µM (inactive)	39.3 µM (inactive)	> 100 µM (inactive)	> 100 µM (inactive)	> 100 µM (inactive)	> 100 µM (inactive)	> 100 µM (inactive)	> 100 µM (inactive)
CCOC1=NC(O)c2cccn2-c2sccc21 (configuration not stated)	51.6 µM (inactive)	> 100 µM (inactive)	> 100 µM (inactive)	–	> 100 µM (inactive)	–	56.8 µM (inactive)	7.73 µM (inactive)	> 100 µM (inactive)	> 100 µM (inactive)	> 100 µM (inactive)	> 100	–	> 100 µM (inactive)	> 100 µM (inactive)	> 100 µM (inactive)	> 100 µM (inactive)	> 100 µM (inactive)	> 100 µM (inactive)	> 100 µM (inactive)
